Molecules are shown by their SMILES.

For one experiment, the system named is MDA-MB-435 cells. The experiment can be described thus: Flow cytometric cell cycle analysis, SC144. The format is cell-based, human. To be noted: 24 h of treatment, SC144 3 uM. The text has this:
Similar effects were obtained on the asynchronous prostate cancer cell line DU145.
Background: Flow cytometry measures light scatter and fluorescence of single cells or particles in a stream.

For a further experiment, the system named is T24 cells. The experiment can be described thus: Two-dimensional gel electrophoresis proteomic analysis, SC23. It is filed as cell-based, human. To be noted: 2D gel spots, SC23 treatment. The method, then: Cells were treated for 12, 24, 48 and 72 hr with SC23 (IC80 dose). The soluble fraction was then extracted and quantified. […] of protein was loaded in the first dimension gel at 800 V for 16 h. Gels were then equilibrated, separated on a 12% SDS-PAGE gel for the second dimension, stained with CyproRuby, and imaged by Typhoon 9100.
SC23-Treated Cells Upregulate a Variety of Proteins in the Molecular Weight Range of 8-58 kDa. […] 2DE was then used to separate these proteins (FIG. 29). As above, treatment with SC23 led to a significant up-regulation of many proteins. Similar analysis was carried out for DU145 cells treated with SC23.
Proteins identified from the spots shown in FIG. 30 are 3-tubulin, myc promoter-binding protein (MPB-1), retinoblastoma-binding protein 7, vimentin, enolase, phosphopyruvate hydratase beta, mitochondrial ATP synthase beta chain.
Among the several spots that were at least 4-fold overexpressed was β-tubulin, which is related to the top three genes identified from our microarray analysis as described above.

With `O=C(NNc1nc2cc(F)ccc2n2cccc12)c1cnccn1` [SC144, Pyrazine-2-carboxylic acid N′-(7-fluoro-pyrrolo[1,2-a]quinoxalin-4-yl)-hydrazide], the “cells retained in S-phase” value in the experiment on MDA-MB-435 cells was found to be 80%.
In the case of `O=C(NNC(O)c1cc2ccccc2cc1O)c1cc2ccccc2cc1O` (centres unmarked) [SC23], in the experiment with T24 cells, the β-tubulin protein overexpression entry is “at least 4 fold”.

These data come from patent publication US20110034472A1, “Novel Compounds for Treatment of Cancer and Disorders Associated With Angiogenesis Function” (UNIVERSITY OF SOUTHERN CALIFORNIA, priority 2004, published 2011).
